Test results reported in ChEMBL document CHEMBL4507286 (2021).

Legend:
[1] = molecular target: Serine/threonine-protein kinase VRK2 (Homo sapiens) (UniProt Q86Y07)
[2] = molecular target: Myosin light chain kinase (Homo sapiens) (UniProt Q32MK0)
[3] = molecular target: TGF-beta receptor type-2 (Homo sapiens) (UniProt P37173)
[4] = system: Mast/stem cell growth factor receptor Kit (Homo sapiens), P10721 [V559D]
[5] = molecular target: Serine/threonine-protein kinase TAO1 (Homo sapiens) (UniProt Q7L7X3)
[6] = molecular target: Mitogen-activated protein kinase 12 (Homo sapiens) (UniProt P53778)
[7] = molecular target: Macrophage-stimulating protein receptor (Homo sapiens) (UniProt Q04912)
[8] = system: Receptor-type tyrosine-protein kinase FLT3 (Homo sapiens), P36888 [D835Y]
[9] = molecular target: Serine/threonine-protein kinase PLK2 (Homo sapiens) (UniProt Q9NYY3)
[10] = molecular target: Casein kinase I isoform gamma-2 (Homo sapiens) (UniProt P78368)
[11] = system: Tyrosine-protein kinase ABL1 (Homo sapiens), P00519 [M351T]
[12] = molecular target: Tyrosine-protein kinase Srms (Homo sapiens) (UniProt Q9H3Y6)
[13] = molecular target: Mitotic checkpoint serine/threonine-protein kinase BUB1 (Homo sapiens) (UniProt O43683)
[14] = molecular target: Calcium/calmodulin-dependent protein kinase type 1 (Homo sapiens) (UniProt Q14012)
[15] = molecular target: MAP kinase-activated protein kinase 2 (Homo sapiens) (UniProt P49137)
[16] = molecular target: Muscle, skeletal receptor tyrosine-protein kinase (Homo sapiens) (UniProt O15146)
[17] = molecular target: Serine/threonine-protein kinase Nek11 (Homo sapiens) (UniProt Q8NG66)
[18] = molecular target: Non-receptor tyrosine-protein kinase TYK2 (Homo sapiens) (UniProt P29597)
[19] = molecular target: Serine/threonine-protein kinase Nek4 (Homo sapiens) (UniProt P51957)
[20] = molecular target: Wee1-like protein kinase (Homo sapiens) (UniProt P30291)
[21] = molecular target: Tyrosine-protein kinase JAK3 (Homo sapiens) (UniProt P52333)
[22] = molecular target: Casein kinase II subunit alpha (Homo sapiens) (UniProt P68400)
[23] = molecular target: Serine/threonine-protein kinase PLK4 (Homo sapiens) (UniProt O00444)
[24] = molecular target: Insulin receptor (Homo sapiens) (UniProt P06213)
[25] = molecular target: LIM domain kinase 2 (Homo sapiens) (UniProt P53671)
[26] = molecular target: Ephrin type-B receptor 2 (Homo sapiens) (UniProt P29323)
[27] = molecular target: Phosphatidylinositol 5-phosphate 4-kinase type-2 beta (Homo sapiens) (UniProt P78356)
[28] = molecular target: Ephrin type-A receptor 5 (Homo sapiens) (UniProt P54756)
[29] = molecular target: Serine/threonine-protein kinase PLK1 (Homo sapiens) (UniProt P53350)
[30] = molecular target: Calcium/calmodulin-dependent protein kinase type II subunit alpha (Homo sapiens) (UniProt Q9UQM7)
[31] = molecular target: Serine/threonine-protein kinase PAK 5 (Homo sapiens) (UniProt Q9P286)
[32] = molecular target: Serine/threonine-protein kinase Nek7 (Homo sapiens) (UniProt Q8TDX7)
[33] = molecular target: Cyclin-dependent kinase 2 homolog (Plasmodium falciparum (isolate 3D7)) (UniProt P61075)
[34] = molecular target: Tyrosine-protein kinase Yes (Homo sapiens) (UniProt P07947)
[35] = molecular target: Phosphatidylinositol 4,5-bisphosphate 3-kinase catalytic subunit delta isoform (Homo sapiens) (UniProt O00329)
[36] = system: Receptor-type tyrosine-protein kinase FLT3 (Homo sapiens), P36888 [D835V]
[37] = molecular target: Receptor tyrosine-protein kinase erbB-4 (Homo sapiens) (UniProt Q15303)
[38] = molecular target: Cyclin-dependent kinase-like 2 (Homo sapiens) (UniProt Q92772)
[39] = system: Hepatocyte growth factor receptor (Homo sapiens), P08581 [Y1235D]
[40] = molecular target: Serine/threonine-protein kinase D1 (Homo sapiens) (UniProt Q15139)
[41] = molecular target: Cyclin-dependent kinase-like 5 (Homo sapiens) (UniProt O76039)
[42] = system: Phosphatidylinositol 4,5-bisphosphate 3-kinase catalytic subunit alpha isoform (Homo sapiens), P42336 [E545A]
[43] = molecular target: Serine/threonine-protein kinase MARK1 (Homo sapiens) (UniProt Q9P0L2)
[44] = molecular target: Dual serine/threonine and tyrosine protein kinase (Homo sapiens) (UniProt Q6XUX3)
[45] = molecular target: Rho-associated protein kinase 2 (Homo sapiens) (UniProt O75116)
[46] = Compound concentration 100.0 nM
[47] = Compound concentration 1000.0 nM

Sequence of Muscle, skeletal receptor tyrosine-protein kinase (Homo sapiens) (O15146 whole entry): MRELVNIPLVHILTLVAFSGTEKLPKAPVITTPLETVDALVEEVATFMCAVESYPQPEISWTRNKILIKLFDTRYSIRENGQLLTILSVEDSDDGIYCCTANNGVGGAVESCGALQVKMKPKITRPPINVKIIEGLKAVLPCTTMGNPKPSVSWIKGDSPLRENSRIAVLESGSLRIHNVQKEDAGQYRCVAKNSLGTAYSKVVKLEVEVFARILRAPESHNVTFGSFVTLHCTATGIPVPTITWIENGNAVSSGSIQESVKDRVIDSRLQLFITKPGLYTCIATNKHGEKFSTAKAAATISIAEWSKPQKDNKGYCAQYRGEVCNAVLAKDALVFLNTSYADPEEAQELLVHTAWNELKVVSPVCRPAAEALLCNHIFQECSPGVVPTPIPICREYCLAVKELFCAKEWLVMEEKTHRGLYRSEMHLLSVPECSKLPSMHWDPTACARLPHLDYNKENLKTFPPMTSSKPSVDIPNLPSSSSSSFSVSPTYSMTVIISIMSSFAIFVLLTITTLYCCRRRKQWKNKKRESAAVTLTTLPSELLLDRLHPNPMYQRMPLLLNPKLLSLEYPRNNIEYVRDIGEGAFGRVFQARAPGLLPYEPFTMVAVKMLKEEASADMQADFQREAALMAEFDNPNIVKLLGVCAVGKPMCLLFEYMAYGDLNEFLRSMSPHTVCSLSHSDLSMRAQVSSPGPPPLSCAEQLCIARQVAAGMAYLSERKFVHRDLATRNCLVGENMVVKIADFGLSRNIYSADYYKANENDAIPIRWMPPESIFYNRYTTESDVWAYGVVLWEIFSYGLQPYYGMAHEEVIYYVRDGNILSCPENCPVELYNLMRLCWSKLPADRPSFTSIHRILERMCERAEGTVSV
Sequence of Mitotic checkpoint serine/threonine-protein kinase BUB1 (Homo sapiens) (O43683 whole entry, looked up): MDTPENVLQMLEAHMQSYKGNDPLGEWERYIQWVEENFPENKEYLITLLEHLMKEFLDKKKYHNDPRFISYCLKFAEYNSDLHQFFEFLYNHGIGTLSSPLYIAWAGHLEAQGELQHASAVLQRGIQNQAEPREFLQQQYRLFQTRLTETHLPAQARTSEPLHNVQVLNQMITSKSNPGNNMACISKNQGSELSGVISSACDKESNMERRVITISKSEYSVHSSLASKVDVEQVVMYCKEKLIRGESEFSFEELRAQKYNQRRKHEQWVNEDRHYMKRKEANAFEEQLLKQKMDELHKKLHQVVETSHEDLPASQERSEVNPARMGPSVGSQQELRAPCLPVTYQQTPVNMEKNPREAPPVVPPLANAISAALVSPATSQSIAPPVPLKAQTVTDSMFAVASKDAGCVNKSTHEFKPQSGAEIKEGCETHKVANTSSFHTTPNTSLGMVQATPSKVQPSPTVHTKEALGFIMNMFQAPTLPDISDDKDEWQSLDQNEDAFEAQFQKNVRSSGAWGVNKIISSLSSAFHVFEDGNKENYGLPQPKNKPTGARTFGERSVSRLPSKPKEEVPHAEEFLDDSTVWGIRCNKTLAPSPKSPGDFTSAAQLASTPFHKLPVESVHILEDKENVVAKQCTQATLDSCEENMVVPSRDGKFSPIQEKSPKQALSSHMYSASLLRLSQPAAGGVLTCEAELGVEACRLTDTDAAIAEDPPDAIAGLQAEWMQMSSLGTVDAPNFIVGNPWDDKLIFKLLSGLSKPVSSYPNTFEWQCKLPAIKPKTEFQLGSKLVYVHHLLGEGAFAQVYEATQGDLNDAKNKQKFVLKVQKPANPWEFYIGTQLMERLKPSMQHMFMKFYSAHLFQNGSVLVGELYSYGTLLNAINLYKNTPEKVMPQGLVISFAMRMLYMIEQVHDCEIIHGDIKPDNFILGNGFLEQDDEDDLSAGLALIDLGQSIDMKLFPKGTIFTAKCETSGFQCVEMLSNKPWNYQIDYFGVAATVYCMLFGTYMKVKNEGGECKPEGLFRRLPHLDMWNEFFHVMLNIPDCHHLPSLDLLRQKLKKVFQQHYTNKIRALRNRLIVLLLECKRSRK
Sequence of Tyrosine-protein kinase JAK3 (Homo sapiens) (P52333 whole entry): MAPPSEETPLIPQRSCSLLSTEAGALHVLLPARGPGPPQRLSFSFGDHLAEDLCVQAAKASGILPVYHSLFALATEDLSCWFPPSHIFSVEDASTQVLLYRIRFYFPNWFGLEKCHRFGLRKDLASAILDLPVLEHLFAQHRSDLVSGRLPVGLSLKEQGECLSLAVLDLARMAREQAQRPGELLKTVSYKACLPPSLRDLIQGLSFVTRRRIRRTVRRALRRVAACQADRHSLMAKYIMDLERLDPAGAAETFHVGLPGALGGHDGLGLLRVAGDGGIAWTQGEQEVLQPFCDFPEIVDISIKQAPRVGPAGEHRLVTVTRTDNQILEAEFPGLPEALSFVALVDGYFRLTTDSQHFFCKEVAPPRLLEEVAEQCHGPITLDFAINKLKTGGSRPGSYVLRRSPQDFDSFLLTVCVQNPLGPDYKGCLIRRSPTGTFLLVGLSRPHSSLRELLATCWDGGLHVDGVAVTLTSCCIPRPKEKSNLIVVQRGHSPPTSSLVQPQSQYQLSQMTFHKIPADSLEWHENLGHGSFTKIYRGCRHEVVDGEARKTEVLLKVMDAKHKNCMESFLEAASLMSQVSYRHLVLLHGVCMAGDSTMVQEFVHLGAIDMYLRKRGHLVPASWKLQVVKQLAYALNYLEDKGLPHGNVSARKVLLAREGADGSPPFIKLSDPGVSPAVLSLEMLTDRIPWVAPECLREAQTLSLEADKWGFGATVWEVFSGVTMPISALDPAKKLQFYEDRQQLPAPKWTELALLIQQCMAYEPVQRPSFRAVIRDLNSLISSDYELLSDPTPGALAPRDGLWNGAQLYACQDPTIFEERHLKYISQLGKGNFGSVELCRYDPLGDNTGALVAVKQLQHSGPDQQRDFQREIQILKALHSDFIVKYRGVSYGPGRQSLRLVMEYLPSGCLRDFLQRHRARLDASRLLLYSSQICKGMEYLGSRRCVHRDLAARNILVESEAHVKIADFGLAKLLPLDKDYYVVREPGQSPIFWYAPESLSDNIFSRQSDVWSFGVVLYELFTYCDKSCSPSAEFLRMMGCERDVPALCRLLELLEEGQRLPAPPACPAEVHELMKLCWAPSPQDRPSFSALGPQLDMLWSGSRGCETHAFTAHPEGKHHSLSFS
Sequence of LIM domain kinase 2 (Homo sapiens) (P53671 whole entry, looked up, the tested form may be a part): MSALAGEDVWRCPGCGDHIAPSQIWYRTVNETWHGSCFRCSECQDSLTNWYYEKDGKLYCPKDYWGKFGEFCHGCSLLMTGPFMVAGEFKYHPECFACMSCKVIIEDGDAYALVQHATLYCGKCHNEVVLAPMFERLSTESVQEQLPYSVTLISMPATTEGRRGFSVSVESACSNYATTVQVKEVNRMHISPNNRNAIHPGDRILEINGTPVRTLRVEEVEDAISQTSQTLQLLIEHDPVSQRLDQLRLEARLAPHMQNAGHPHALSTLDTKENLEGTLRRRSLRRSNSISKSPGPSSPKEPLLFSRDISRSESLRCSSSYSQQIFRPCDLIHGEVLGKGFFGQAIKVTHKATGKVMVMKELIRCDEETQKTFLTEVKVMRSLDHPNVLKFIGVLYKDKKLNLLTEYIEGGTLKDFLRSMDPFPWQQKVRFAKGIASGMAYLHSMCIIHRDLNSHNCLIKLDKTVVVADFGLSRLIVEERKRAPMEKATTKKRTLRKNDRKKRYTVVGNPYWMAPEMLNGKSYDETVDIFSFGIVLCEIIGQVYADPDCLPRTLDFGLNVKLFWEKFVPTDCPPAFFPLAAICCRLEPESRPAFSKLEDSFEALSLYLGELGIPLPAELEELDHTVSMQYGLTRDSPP
Sequence of Myosin light chain kinase (Homo sapiens) (Q32MK0 whole entry): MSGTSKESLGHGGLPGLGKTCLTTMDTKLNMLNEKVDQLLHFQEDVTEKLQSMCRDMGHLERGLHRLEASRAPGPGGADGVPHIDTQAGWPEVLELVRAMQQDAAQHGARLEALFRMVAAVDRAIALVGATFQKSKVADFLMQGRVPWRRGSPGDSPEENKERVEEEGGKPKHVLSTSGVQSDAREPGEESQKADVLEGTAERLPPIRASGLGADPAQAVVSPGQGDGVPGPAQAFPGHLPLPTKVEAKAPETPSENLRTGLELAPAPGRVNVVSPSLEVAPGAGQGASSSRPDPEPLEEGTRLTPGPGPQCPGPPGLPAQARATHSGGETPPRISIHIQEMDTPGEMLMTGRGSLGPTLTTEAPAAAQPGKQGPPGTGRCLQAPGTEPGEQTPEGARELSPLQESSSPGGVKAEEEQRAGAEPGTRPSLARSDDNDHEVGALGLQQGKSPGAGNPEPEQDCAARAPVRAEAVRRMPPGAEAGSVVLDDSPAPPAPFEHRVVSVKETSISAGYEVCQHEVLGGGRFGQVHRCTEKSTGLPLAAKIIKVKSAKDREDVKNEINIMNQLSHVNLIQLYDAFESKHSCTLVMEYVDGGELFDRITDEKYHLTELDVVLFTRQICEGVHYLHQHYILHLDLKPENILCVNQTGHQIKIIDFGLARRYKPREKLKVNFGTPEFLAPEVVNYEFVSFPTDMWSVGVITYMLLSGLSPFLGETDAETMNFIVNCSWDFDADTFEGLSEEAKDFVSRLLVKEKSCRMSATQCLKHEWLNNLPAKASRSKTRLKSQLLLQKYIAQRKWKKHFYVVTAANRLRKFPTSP
Sequence of Cyclin-dependent kinase-like 2 (Homo sapiens) (Q92772 whole entry): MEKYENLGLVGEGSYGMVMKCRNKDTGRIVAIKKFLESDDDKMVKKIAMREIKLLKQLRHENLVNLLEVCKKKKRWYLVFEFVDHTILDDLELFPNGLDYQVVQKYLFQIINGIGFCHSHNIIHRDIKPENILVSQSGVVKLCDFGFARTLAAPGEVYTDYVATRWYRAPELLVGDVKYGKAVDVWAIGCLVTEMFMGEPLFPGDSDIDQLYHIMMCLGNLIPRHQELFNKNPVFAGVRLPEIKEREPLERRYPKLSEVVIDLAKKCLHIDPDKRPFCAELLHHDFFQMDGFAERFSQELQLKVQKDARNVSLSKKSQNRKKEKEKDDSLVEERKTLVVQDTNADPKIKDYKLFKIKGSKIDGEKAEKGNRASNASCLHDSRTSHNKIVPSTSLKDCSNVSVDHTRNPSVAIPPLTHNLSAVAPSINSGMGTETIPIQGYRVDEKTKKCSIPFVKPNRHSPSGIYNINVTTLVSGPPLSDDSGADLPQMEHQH

C[C@@H](NC(=O)Nc1cc2[nH]ncc2c(CO)n1)c1ccccc1 [ERKi]
residual activity [1, 46]: 76.3%
residual activity [2, 46]: 100%
residual activity [3, 46]: 40.8%
residual activity [4, 46]: 88.3%
residual activity [5, 46]: 66.4%
residual activity [6, 46]: 80.7%
residual activity [7, 46]: 94.4%
residual activity [8, 46]: 86.2%
residual activity [9, 46]: 95.1%
residual activity [10, 46]: 100%
residual activity [11, 46]: 100%
residual activity [12, 46]: 87.1%
residual activity [13, 46]: 96%
residual activity [14, 46]: 67.1%
residual activity [15, 46]: 100%
residual activity [16, 46]: 86.8%
residual activity [17, 46]: 83.4%
residual activity [18, 46]: 94.7%
residual activity [19, 46]: 86.6%
residual activity [20, 46]: 98.9%
residual activity [21, 46]: 64.5%
residual activity [22, 46]: 94%
residual activity [23, 46]: 71.6%
residual activity [24, 46]: 74.7%
residual activity [25, 46]: 100%
residual activity [26, 46]: 83.3%
residual activity [27, 46]: 45%
residual activity [28, 46]: 87.9%
residual activity [29, 46]: 58.4%
residual activity [30, 46]: 73.5%
residual activity [31, 46]: 88.7%
residual activity [32, 46]: 76.9%
residual activity [33, 46]: 80.1%
residual activity [34, 46]: 96.9%
residual activity [35, 46]: 81.9%
residual activity [36, 46]: 95.2%
residual activity [37, 46]: 97.6%
residual activity [38, 46]: 81%
residual activity [39, 46]: 90.5%
residual activity [40, 46]: 100%
residual activity [41, 46]: 88.3%
residual activity [42, 46]: 78.4%
residual activity [43, 46]: 97%
residual activity [44, 46]: 91.6%
residual activity [45, 46]: 44.7%

C[C@H](NC(=O)Nc1cc2[nH]ncc2c(CO)n1)c1ccccn1 [ERKi-NC]
residual activity [1, 47]: 100%
residual activity [2, 47]: 100%
residual activity [3, 47]: 76.1%
residual activity [4, 47]: 100%
residual activity [5, 47]: 100%
residual activity [6, 47]: 48.4%
residual activity [7, 47]: 85.5%
residual activity [8, 47]: 96.8%
residual activity [9, 47]: 100%
residual activity [10, 47]: 100%
residual activity [11, 47]: 89.8%
residual activity [12, 47]: 84%
residual activity [13, 47]: 100%
residual activity [14, 47]: 100%
residual activity [15, 47]: 100%
residual activity [16, 47]: 100%
residual activity [17, 47]: 57.7%
residual activity [18, 47]: 69.9%
residual activity [19, 47]: 83.9%
residual activity [20, 47]: 100%
residual activity [21, 47]: 100%
residual activity [22, 47]: 100%
residual activity [23, 47]: 100%
residual activity [24, 47]: 100%
residual activity [25, 47]: 96%
residual activity [26, 47]: 100%
residual activity [27, 47]: 99.5%
residual activity [28, 47]: 100%
residual activity [29, 47]: 92.1%
residual activity [30, 47]: 100%
residual activity [31, 47]: 100%
residual activity [32, 47]: 98%
residual activity [33, 47]: 91.1%
residual activity [34, 47]: 100%
residual activity [35, 47]: 100%
residual activity [36, 47]: 88%
residual activity [37, 47]: 100%
residual activity [38, 47]: 100%
residual activity [39, 47]: 100%
residual activity [40, 47]: 89.4%
residual activity [41, 47]: 100%
residual activity [42, 47]: 71.9%
residual activity [43, 47]: 78.7%
residual activity [44, 47]: 100%
residual activity [45, 47]: 88.4%
